One compound from patent US20260217701A1, “SELECTIVE BET INHIBITORS AND USES THEREOF” (Tay Therapeutics Limited, priority 2022, published 2026) can be followed below.

The subject of this assay is lupus. In words: SLE (lupus) model: blood urea nitrogen (BUN) in serum. Format: in vivo, MRL/MpJ-Faslpr mice. The note with it: Week 19. The protocol: Female MRL/MpJ-Faslpr mice (The Jackson Laboratory) were used to assess the efficacy of Compound A in treating lupus. Starting when animals were 10 weeks of age, protein concentration in urine was measured using urine dipsticks.
At the start of the study, each group in the study had two animals that were 9 weeks old, and all others were 10 weeks old. Dosing of all animals with the test compounds began when the older animals were 11 weeks old. Starting on Day 1, in Groups 1-4, vehicle or Compound A was administered per os (PO) […] (QD) as described above in Table 33. […] Dosing was at a consistent time each dosing day throughout the study.
Compound A may be formulated as illustrated in Experimental Method A (see Table 2E.). […] A stock solution of Compound A in DMSO (stock solution concentration of Compound A of 40 mg/mL) was prepared and aliquots for weekly preparations were frozen at −20° C. On each preparation day, a stock solution aliquot was thawed and diluted with other vehicle components to the desired concentration. Formulated Compound A and vehicle were at room temperature for dosing.
The study began when the older animals were 11 weeks old, and concluded when the older animals were 19 weeks old. Body weight was recorded once a week, with the exception of two weight measurements taken the first week of the study (when the older animals were 11 weeks old). Proteinuria was measured in the urine of animals with urine dipsticks once a week, starting when the older animals were 10 weeks old. […] Blood samples were taken retro-orbitally at the start of the study to establish a baseline (15 animals, 3 per group), and when the older animals were 16 weeks (all animals) and when animals were 19 weeks (all animals) at the conclusion of the study. Blood urea nitrogen (BUN) was measured in all animals at study termination in blood samples. After blood collection, animals were euthanized, perfused with PBS, and the left kidneys were collected and weighed and fixed in 10% buffered formalin. Left kidneys were then processed to a formalin-fixed, paraffin-embedded (FFPE) block, and histology was analyzed in Periodic Acid-Schiff-stained sections (1 section per slide), using the criteria described in Alperovich et al., Lupus, 16:18-24 (2007). Right kidneys were weighed and snap-frozen at −80° C. Spleens were also collected and weighed. SLE in animals treated with a BET inhibitor and vehicle.
BUN provides important information about how well kidneys are working. A BUN test measures the amount of urea nitrogen in the blood and indicates how much urea has been processed by the kidneys and is indicative of renal competency. Urea is a waste product that is excreted in urine.

Each structure is given as a SMILES string.

In the case of `Cn1cc(-c2ccccc2)c(-c2cn(C)c(=O)c3[nH]c(-c4cnn(C(F)(F)F)c4)cc23)cc1=O` [Compound A, 6-methyl-4-(1-methyl-2-oxo-5-phenyl-1,2-dihydropyridin-4-yl)-2-(1-(trifluoromethyl)-1H-pyrazol-4-yl)-1,6-dihydro-7H-pyrrolo[2,3-c]pyridin-7-one], the BUN serum concentration is, setting by setting: (Compound A 1 mg/kg PO QD) 18.0 mg/dL; (Compound A 3 mg/kg PO QD) 16.8 mg/dL; (Compound A 10 mg/kg PO QD) 11.0 mg/dL. The “Blood urea nitrogen (BUN) concentration in serum” value (highest dose (10 mg/mL)) was 11 mg/dL.
